According to US10548316B2, “Diarylazole compound and harmful organism control agent” (Nippon Soda Co., Ltd., priority 2015, dated 2020):

Tests used:
[1] = test system: Culex pipiens; test: Efficacy test against Culex pipiens; format: in vivo; conditions: 2 ppm; first-instar larvae; after 1 day
Description: (§1) 5 parts of the compound of the present invention, 93.6 parts of dimethylformamide, and 1.4 parts of polyoxyethylene alkylaryl ether were mixed and dissolved to prepare an emulsion (I) of 5% of the active ingredient.
(§2) The insect mortality rate and the control rate were calculated by the following formula. Insect mortality rate (%)=(number of dead insects/number of sample insects)×100 Prevention rate=[1−(Nt)/(Nc)]×100
Emulsion (I) was diluted with water so that the concentration of the compound of the present invention reaches 2 ppm to prepare a chemical solution for test. 20 first-instar larvae of Culex pipiens were released into 100 ml of the chemical solution for test, then the number of dead insects was calculated after 1 day was passed, and the insect mortality rate was calculated by the formula. The test was repeated twice.

[2] = test system: Pseudaletia separata; test: Efficacy test against Pseudaletia separata (artificial diet); format: in vivo; conditions: for insect mortality rate: in vivo
Description: as §1, §2
0.8 g of commercially available artificial diet (Insecta US, manufactured by Nosan Corporation) and 1 μl of emulsion (1) were well mixed and 0.2 g of the resulting mixture was packed in a plastic test container (1.4 ml) per each treatment group to prepare test feeds.
2 second-instar larvae of Pseudaletia separata were inoculated into each treatment group and sealed with a plastic lid. The plastic test containers were placed in a thermostatic chamber with a temperature of 25° C., and the insect mortality rate and the food intake amount were investigated on the fifth day. The test was repeated twice.
Further, a test under the same conditions except that the compound of the present invention was removed from emulsion (I) was conducted as a solvent control group.

Row | SMILES | insect mortality rate [2] | further results
1 | CCS(=O)(=O)c1cc(C(F)(F)F)ccc1-n1cc(-c2ccc(OC(F)(F)F)cc2)cn1 [Compound 1-14] | 100% | insect mortality rate [1]: 100%
2 | CCS(=O)(=O)c1cc(C(F)(F)F)ccc1-n1ncc(-c2ccc(OC(F)(F)F)cc2)c1C [Compound 1-19] | 100% | insect mortality rate [1]: 100%
3 | CCS(=O)(=O)c1cc(C(F)(F)F)ccc1-n1ncc(-c2ccc(C(F)(F)F)nc2)c1C [Compound 1-24] | 100% | insect mortality rate [1]: 100%
4 | CCS(=O)(=O)c1cc(C(F)(F)F)cnc1-n1cc(-c2ccc(OC(F)(F)F)cc2)cn1 [Compound 2-6] | 100% | 
5 | CCS(=O)(=O)c1cc(C(F)(F)F)cnc1-n1ncc(-c2ccc(OC(F)(F)F)cc2)c1C [Compound 2-7] | 100% | 
6 | CCS(=O)(=O)c1cccnc1-n1ncc(-c2ccc(OC(F)(F)F)cc2)c1C [Compound 2-8] | 100% | 
7 | CCS(=O)(=O)c1cccnc1-n1ncc(-c2ccc(C(F)(F)C(F)(F)F)cc2)c1C [Compound 2-9] | 100% | 
8 | CCS(=O)(=O)c1cccnc1-n1ncc(-c2ccc(OC(F)(F)F)cc2)c1N [Compound 2-10] | 100% | food intake amount in ratio to the solvent control group ([2]; 1 μl emulsion (I) (5% active ingredient) mixed in 0.8 g artificial diet, second-instar larvae, 25° C., fifth day): ≤ 10%
9 | CCS(=O)(=O)c1cccnc1-n1ncc(-c2ccc(C(F)(F)C(F)(F)F)cc2)c1N [Compound 2-11] | 100% | 
10 | CCS(=O)(=O)c1cccnc1-n1ncc(-c2ccc(SC(F)(F)F)cc2)c1N [Compound 2-12] | 100% | 
11 | CCS(=O)(=O)c1cccnc1-n1ncc(-c2ccc(C(F)(F)C(F)(F)F)nc2)c1C [Compound 2-16] | 100% | 
12 | CCS(=O)(=O)c1cc(C(F)(F)F)ccc1-c1cnn(-c2ccc(C(F)(F)F)cc2)c1Br [Compound 3-3] | 100% | 
13 | CCSc1cc(C(F)(F)F)ccc1-n1nnc(-c2ccc(C(F)(F)F)cc2)c1C [Compound 4-5, 1-(2-(Ethylthio)-4-(trifluoromethyl)phenyl)-5-methyl-4-(4-(trifluoromethyl)phenyl)-1H-1,2,3-triazole] |  | melting point: 79 to 80 °C
14 | CCS(=O)(=O)c1cc(C(F)(F)F)ccc1-n1nnc(-c2ccc(C(F)(F)F)cc2)c1C [Compound 4-6, 1-(2-(Ethylsulfonyl)-4-(trifluoromethyl)phenyl)-5-methyl-4-(4-(trifluoromethyl)phenyl)-1H-1,2,3-triazole] |  | melting point: 154 to 156 °C
15 | CCSc1cc(C(F)(F)F)ccc1-n1cc(-c2ccc(OC(F)(F)F)cc2)nn1 [Compound 4-7, 1-(2-(Ethylthio)-4-(trifluoromethyl)phenyl)-4-(4-(trifluoromethoxy)phenyl)-1H-1,2,3-triazole] |  | melting point: 110 to 111 °C
16 | CCS(=O)(=O)c1cc(C(F)(F)F)ccc1-n1cc(-c2ccc(OC(F)(F)F)cc2)nn1 [Compound 4-8, 1-(2-(Ethylsulfonyl)-4-(trifluoromethyl)phenyl)-4-(4-(trifluoromethoxy)phenyl)-1H-1,2,3-triazole] |  | melting point: 178 to 179 °C
17 | CCSc1cc(C(F)(F)F)ccc1-c1cn(-c2ccc(OC(F)(F)F)cc2)nn1 [Compound 5-1] | 100% | 
18 | CCS(=O)(=O)c1cc(C(F)(F)F)ccc1-c1cn(-c2ccc(OC(F)(F)F)cc2)nn1 [Compound 5-2] | 100% | 
